Reference: patent US12637428B2, “Isoquinoline derivatives as SIK2 inhibitors” (Cancer Research Technology Limited, priority 2019, dated 2026)

Experiments:
Assay type in all cases: biochemical
SIK2 = target: T1, SIK2 (Homo sapiens, UniProt Q9H0K1); assay: SIK2 kinase assay, IMAP fluorescence polarization; details: 50 or 100 μM ATP, average
T1 construct: purchased Life Technologies
Summary of the method: (§1)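 IMAP FP format: 0.6-13 nM kinase, 100 nM FAM-peptide substrate, 50 or 100 μM ATP, Tris pH 7.2/4 mM MgCl2/0.2% BSA/2 mM DTT, 60 min RT. Compounds 0.00005-1 μM. Stop with 0.25% IMAP binding reagent (buffer A:B 85:15; 30:70 for Src).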

SIK1 = target: T2, SIK1 (Homo sapiens, UniProt P57059); assay: SIK1 kinase assay, IMAP fluorescence polarization; details: 50 or 100 μM ATP, average
T2 construct: purchased Life Technologies
Summary of the method: as §1

SIK3 = target: T3, SIK3 (Homo sapiens, UniProt Q9Y2K2); assay: SIK3 kinase assay, IMAP fluorescence polarization; details: 50 or 100 μM ATP, average
T3 construct: purchased Life Technologies
Summary of the method: as §1

Abl = target: T4, Abl (Homo sapiens, UniProt P00519); assay: Abl kinase assay, IMAP fluorescence polarization; details: 50 or 100 μM ATP, average
T4 construct: purchased Life Technologies
Summary of the method: as §1

Src = target: T5, Src (Homo sapiens, UniProt P12931); assay: Src kinase assay, IMAP fluorescence polarization; details: 50 or 100 μM ATP, average
T5 construct: purchased Life Technologies
Summary of the method: as §1

EPHA2 = target: T6, EPHA2 (Homo sapiens, UniProt P29317); assay: EPHA2 kinase assay, IMAP fluorescence polarization; details: 50 or 100 μM ATP, Tris pH 8.5, average
T6 construct: purchased Life Technologies
T6 sequence (P29317 24-976): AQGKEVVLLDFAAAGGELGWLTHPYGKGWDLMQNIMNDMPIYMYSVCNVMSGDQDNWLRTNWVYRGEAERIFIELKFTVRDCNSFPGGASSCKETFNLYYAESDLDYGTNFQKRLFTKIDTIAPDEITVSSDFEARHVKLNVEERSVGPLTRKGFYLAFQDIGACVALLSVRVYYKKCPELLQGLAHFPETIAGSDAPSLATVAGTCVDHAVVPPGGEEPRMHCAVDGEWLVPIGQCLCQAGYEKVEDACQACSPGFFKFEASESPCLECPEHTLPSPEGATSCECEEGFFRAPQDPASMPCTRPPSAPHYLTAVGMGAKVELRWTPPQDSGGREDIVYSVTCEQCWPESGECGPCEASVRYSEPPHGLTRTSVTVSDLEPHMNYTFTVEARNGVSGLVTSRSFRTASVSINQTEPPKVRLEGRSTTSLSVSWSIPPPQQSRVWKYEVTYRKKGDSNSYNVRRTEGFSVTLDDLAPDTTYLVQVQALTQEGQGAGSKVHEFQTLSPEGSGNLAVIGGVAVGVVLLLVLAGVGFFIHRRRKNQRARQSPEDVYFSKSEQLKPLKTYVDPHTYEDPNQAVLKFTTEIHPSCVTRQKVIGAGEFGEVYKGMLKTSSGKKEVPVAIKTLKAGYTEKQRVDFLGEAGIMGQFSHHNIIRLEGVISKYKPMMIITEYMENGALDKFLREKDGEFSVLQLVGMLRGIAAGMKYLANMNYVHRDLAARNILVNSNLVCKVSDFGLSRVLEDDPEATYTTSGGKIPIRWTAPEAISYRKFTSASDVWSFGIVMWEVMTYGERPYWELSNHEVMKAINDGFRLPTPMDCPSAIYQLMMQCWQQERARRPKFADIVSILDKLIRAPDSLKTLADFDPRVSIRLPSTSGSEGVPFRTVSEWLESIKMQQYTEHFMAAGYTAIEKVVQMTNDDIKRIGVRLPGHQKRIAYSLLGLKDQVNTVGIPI

T3 sequence (Q9Y2K2 whole entry): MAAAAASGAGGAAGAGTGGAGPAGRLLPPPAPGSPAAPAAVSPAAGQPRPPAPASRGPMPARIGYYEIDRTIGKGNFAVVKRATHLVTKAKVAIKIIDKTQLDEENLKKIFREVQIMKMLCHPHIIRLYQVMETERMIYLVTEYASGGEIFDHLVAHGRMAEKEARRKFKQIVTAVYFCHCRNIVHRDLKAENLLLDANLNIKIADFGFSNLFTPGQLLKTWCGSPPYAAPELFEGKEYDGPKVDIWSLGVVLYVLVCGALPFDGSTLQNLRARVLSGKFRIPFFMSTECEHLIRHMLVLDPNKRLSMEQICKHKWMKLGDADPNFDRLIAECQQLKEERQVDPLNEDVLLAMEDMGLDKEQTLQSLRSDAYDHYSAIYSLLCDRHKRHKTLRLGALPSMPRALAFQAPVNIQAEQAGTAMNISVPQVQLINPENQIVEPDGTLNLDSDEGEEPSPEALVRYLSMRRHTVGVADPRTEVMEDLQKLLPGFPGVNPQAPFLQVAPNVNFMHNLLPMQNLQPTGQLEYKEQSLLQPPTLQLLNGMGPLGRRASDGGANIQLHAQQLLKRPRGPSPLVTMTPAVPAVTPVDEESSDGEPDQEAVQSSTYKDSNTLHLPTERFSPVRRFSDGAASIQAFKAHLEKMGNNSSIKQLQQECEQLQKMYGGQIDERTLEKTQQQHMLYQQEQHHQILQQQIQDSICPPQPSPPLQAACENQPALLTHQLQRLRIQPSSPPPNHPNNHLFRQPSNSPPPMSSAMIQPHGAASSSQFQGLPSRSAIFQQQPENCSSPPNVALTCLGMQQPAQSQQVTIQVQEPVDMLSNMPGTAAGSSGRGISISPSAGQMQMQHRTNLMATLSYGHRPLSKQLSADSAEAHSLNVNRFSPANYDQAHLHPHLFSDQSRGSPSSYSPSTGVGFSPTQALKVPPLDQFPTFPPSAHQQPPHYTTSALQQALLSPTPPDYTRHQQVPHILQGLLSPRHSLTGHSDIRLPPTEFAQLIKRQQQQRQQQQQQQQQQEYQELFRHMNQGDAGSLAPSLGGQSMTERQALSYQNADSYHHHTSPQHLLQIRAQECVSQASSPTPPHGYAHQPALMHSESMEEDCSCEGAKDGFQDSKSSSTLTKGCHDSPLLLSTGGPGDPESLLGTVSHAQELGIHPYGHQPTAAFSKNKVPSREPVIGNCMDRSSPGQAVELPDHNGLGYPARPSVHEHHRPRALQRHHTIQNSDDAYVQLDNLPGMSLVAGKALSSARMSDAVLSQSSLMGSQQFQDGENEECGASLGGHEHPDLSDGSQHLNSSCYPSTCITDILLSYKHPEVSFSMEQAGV
T4 sequence (P00519 whole entry): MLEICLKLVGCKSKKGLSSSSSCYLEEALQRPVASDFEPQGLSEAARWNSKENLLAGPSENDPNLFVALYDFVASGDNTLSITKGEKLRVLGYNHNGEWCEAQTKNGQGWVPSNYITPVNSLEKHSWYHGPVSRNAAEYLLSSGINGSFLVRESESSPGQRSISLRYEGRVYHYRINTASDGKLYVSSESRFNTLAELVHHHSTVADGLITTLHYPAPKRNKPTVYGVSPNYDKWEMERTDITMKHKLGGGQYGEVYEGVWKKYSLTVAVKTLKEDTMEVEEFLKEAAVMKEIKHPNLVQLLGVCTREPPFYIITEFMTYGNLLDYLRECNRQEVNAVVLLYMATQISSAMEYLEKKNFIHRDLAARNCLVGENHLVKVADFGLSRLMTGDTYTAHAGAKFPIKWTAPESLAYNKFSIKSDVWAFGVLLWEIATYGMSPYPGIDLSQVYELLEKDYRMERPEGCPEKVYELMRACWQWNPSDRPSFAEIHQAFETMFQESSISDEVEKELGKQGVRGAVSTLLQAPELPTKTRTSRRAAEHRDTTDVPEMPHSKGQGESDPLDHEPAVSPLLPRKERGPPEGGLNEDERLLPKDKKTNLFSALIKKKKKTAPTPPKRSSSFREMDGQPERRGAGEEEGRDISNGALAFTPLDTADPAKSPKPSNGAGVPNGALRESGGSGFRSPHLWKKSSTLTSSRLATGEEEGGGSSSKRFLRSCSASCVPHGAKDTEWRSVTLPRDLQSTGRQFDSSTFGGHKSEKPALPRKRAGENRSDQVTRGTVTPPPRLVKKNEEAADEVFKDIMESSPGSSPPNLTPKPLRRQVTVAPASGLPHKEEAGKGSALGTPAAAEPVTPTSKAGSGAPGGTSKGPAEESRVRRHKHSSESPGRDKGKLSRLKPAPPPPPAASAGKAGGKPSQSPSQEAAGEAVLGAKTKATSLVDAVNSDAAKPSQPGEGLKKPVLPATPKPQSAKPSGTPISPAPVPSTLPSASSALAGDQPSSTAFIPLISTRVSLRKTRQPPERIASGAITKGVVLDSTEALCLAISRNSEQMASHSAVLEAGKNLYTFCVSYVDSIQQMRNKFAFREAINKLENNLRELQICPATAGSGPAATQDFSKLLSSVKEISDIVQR
T2 sequence (P57059 whole entry): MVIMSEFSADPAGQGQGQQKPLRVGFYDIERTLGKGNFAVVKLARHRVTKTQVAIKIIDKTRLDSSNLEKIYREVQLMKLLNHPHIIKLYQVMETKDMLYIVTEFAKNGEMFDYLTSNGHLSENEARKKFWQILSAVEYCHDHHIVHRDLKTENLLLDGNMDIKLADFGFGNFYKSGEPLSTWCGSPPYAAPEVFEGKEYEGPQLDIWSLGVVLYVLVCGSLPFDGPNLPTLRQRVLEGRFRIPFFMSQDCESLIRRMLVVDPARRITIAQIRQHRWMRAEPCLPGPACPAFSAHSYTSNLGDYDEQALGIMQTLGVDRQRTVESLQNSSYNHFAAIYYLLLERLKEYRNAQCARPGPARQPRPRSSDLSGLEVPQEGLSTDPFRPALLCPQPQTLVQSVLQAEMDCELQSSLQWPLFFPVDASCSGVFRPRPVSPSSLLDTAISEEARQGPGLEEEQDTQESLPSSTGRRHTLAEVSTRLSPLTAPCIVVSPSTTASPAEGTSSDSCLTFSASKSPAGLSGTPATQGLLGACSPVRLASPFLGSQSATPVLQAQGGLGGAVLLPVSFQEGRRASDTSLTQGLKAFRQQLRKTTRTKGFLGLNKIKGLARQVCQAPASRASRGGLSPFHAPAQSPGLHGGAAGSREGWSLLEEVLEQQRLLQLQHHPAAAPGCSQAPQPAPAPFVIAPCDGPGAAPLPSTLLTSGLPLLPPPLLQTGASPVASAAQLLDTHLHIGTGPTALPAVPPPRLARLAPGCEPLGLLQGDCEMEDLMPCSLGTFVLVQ
T1 sequence (Q9H0K1 whole entry): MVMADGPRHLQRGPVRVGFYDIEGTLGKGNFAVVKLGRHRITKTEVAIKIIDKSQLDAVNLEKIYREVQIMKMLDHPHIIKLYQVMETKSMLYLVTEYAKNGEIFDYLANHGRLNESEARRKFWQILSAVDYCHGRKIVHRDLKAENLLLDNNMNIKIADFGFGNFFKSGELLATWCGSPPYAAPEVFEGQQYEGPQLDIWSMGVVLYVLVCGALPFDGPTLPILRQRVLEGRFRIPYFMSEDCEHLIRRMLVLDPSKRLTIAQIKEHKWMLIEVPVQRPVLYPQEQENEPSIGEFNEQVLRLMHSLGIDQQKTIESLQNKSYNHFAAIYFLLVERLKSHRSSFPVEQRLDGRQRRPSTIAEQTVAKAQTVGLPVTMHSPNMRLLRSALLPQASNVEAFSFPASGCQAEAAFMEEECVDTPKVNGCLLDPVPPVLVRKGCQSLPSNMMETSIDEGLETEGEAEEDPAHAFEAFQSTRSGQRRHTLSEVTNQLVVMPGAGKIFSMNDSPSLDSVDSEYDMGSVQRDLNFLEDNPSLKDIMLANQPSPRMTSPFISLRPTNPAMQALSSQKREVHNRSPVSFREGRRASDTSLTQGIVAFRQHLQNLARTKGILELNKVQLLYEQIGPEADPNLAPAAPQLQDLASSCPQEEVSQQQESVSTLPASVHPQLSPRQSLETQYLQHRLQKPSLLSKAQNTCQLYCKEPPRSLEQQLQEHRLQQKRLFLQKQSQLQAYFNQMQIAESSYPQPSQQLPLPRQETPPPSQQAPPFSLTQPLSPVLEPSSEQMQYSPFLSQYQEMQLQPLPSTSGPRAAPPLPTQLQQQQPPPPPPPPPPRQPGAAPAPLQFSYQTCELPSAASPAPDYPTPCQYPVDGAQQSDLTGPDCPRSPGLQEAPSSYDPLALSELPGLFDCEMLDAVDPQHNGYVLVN

| Compound | Ki (SIK2) [nM] | Ki (SIK1) [nM] | Ki (SIK3) [nM] | Ki (Abl) [nM] | Ki (Src) [nM] | Ki (EPHA2) [nM] |
| --- | --- | --- | --- | --- | --- | --- |
| Cc1cccc(F)c1-c1cc(NC[C@H]2CCCCN2C)c2cc(N)ncc2c1 [Example 56, 7-(2-fluoro-6-methyl-phenyl)-N5-[[(2R)-1-methyl-2-piperidyl]methyl] isoquinoline-3,5-diamine] | 0.578 | 1.06 | 6.3 | 48 | 229 | 238 |
| Cc1cccc(F)c1-c1cc(OC2CNC2)c2cc(N)ncc2c1 [Example 47, 5-(azetidin-3-yloxy)-7-(2-fluoro-6-methyl-phenyl)isoquinolin-3-amine] | 0.168 | 1.01 | 2.07 | 13.5 | 731 | 1080 |
| Cc1cccc(F)c1-c1cc(N2CCC[C@@H](CN(C)C)C2)c2cc(N)ncc2c1 [Example 61, 5-[(3S)-3-[(dimethylamino)methyl]-1-piperidyl]-7-(2-fluoro-6-methyl-phenyl)isoquinolin-3-amine] | 1.08 | 3.23 | 39.5 | 27.7 | 226 | 199 |
| Cc1cccc(F)c1-c1cc(N2CCC(N(C)C)CC2)c2cc(N)ncc2c1 [Example 57, 5-[4-(dimethylamino)-1-piperidyl]-7-(2-fluoro-6-methyl-phenyl)isoquinolin-3-amine] | 0.147 | 1.13 | 2.45 | 59.9 | 303 | 150 |
| Cc1cccc(F)c1-c1cc(N2CCC[C@H](N(C)C)C2)c2cc(N)ncc2c1 [Example 82, 5-[(3S)-3-(dimethylamino)-1-piperidyl]-7-(2-fluoro-6-methyl-phenyl)isoquinolin-3-amine] | 0.269 | 1.25 | 10.3 | 10.4 | 93.9 | > 1000 |
| CN[C@H]1CCN(c2cc(-c3c(C)cccc3F)cc3cnc(N)cc23)C1 [Example 16, 7-(2-fluoro-6-methyl-phenyl)-5-[(3S)-3-(methylamino)pyrrolidin-1-yl]isoquinolin-3-amine] | 0.224 | 2 | 4.7 | 41.6 | 924 | 278 |
| Cc1cccc(F)c1-c1cc(NC[C@@H]2CCCCN2C)c2cc(N)ncc2c1 [Example 78, 7-(2-fluoro-6-methyl-phenyl)-N5-[[(2S)-1-methyl-2-piperidyl]methyl]isoq uinoline-3,5-diamine] | 0.0935 | 0.433 | 1.6 | 6.85 | 43.3 | 119 |
| Cc1cccc(F)c1-c1cc(NCC2CN(C)C2)c2cc(N)ncc2c1 [Example 72, 7-(2-fluoro-6-methyl-phenyl)-N5-[(1-methylazetidin-3-yl)methyl] isoquinoline-3,5-diamine] | 0.117 | 0.627 | 1.29 | 1.83 | 40.1 | 153 |
| Cc1cccc(Cl)c1-c1cc(NC2CCN(C)CC2)c2ncncc2c1 [Example 130, 6-(2-chloro-6-methyl-phenyl)-N-(1-methyl-4-piperidyl)quinazolin-8-amine] | 2.87 | 5.53 | 17.2 | > 10000 | 549 | 85.3 |
| Cc1cccc(F)c1-c1cc(NC(=O)C2CCNC2)c2cc(N)ncc2c1 (stereo not drawn) [Example 136, N-[3-amino-7-(2-fluoro-6-methyl-phenyl)-5-isoquinolyl] pyrrolidine-3-carboxamide] | 1.1 | 1.9 | 8.89 | 27.6 | 147 | 260 |
| Cc1cccc(F)c1-c1ccc2c(C(=O)NC3CN(C)C3)c(N)ncc2c1 [Example 89, 3-Amino-7-(2-fluoro-6-methyl-phenyl)-N-(1-methylazetidin-3-yl)isoquinoline-4-carboxamide] | 5.31 | 53.2 | 130 | 83.7 | 1040 | 1850 |
| Cc1cccc(F)c1-c1cc(N2CC[C@@H](O)C2)c2cc(N)ncc2c1 [Example 106, (3R)-1-[3-amino-7-(2-fluoro-6-methyl-phenyl)-5-isoquinolyl]pyrrolidin-3-ol] | 19.5 | 123 | 553 | 28.8 | > 10000 | > 10000 |
| Cc1cccc(F)c1-c1cc(NC[C@H]2CCCN(C)C2)c2cc(N)ncc2c1 [Example 77, 7-(2-fluoro-6-methyl-phenyl)-N5-[[(3R)-1-methyl-3-piperidyl]methyl] isoquinoline-3,5-diamine] | 0.302 | 1.13 | 3.74 | 26.5 | 197 | 80.1 |
| CNc1cc2c(N3CCC[C@H](N(C)C)C3)cc(-c3c(C)cccc3F)cc2cn1 [Example 83, 5-[(3S)-3-(dimethylamino)-1-piperidyl]-7-(2-fluoro-6-methyl-phenyl)-N-methyl-isoquinolin-3-amine] | 0.316 | 0.55 | 7.35 | 9.38 | 97.8 | > 1000 |
| Cc1cccc(F)c1-c1cc(NC2CCOCC2)c2cc(N)ncc2c1 [Example 110, 7-(2-Fluoro-6-methyl-phenyl)-N5-tetrahydropyran-4-yl-isoquinoline-3,5-diamine] | 6.97 | 55.5 | 78.1 | 56 | > 10000 | > 1000 |
| Cc1cccc(F)c1-c1cc(NC[C@@H]2CCCNC2)c2cc(N)ncc2c1 [Example 10, 7-(2-fluoro-6-methyl-phenyl)-N5-[[(3R)-3-piperidyl]methyl]isoquinoline-3,5-diamine] | 0.101 | 0.535 | 0.966 | 4.83 | 32.1 | 47.6 |
| Cc1cccc(F)c1-c1cc(NC[C@@H]2CCCN(C)C2)c2cc(N)ncc2c1 [Example 76, 7-(2-fluoro-6-methyl-phenyl)-N5-[[(3S)-1-methyl-3-piperidyl]methyl]isoq uinoline-3,5-diamine] | 0.188 | 0.516 | 1.64 | 2 | 12.7 | 16.6 |
| Cc1cccc(Cl)c1-c1cc(NC2CCNCC2)c2cc(N)ncc2c1 [Example 30, 7-(2-Chloro-6-methyl-phenyl)-N5-(4-piperidyl)isoquinoline-3,5-diamine] | 0.335 | 0.474 | 2.92 | 36.1 | 96.2 | 65.5 |
| Cc1cccc(Cl)c1-c1cc(NC2CCNCC2)c2ncncc2c1 [Example 138, 6-(2-chloro-6-methyl-phenyl)-N-(4-piperidyl)quinazolin-8-amine] | 3.12 | 3.7 | 15.7 | 545 | 333 | 93.4 |
| Cc1cccc(F)c1-c1cc(N[C@@H]2CCNC2)c2cc(N)ncc2c1 [Example 4, 7-(2-fluoro-6-methyl-pheny)-N5-[(3R)-pyrrolidin-3-yl]isoquinoline-3,5-diamine] | 0.0703 | 0.354 | 0.231 | 7.79 | 138 | 644 |
| Cc1cccc(F)c1-c1cc(NC[C@H]2CCCN2)c2cc(N)ncc2c1 [Example 12, 7-(2-fluoro-6-methyl-phenyl)-N5-[[(2R)-pyrrolidin-2-yl]methyl]isoquinoline-3,5-diamine] | 0.329 | 1.07 | 3.1 | 22.9 | 167 | 216 |
| Cc1cccc(F)c1-c1cc(NC2CCN(C)CC2)c2cc(N)ncc2n1 [Example 121, 2-(2-Fluoro-6-methyl-phenyl)-N4-(1-methyl-4-piperidyl)-1,7-naphthyridine-4,6-diamine] | 46 | 178 | 488 | > 10000 | > 10000 | 2650 |
| Cc1cccc(F)c1-c1cc(NC[C@@H]2CCCN2C)c2cc(N)ncc2c1 [Example 55, 7-(2-fluoro-6-methyl-phenyl)-N5-[[(2S)-1-methylpyrrolidin-2-yl]methyl] isoquinoline-3,5-diamine] | 0.22 | 0.954 | 3.85 | 9.11 | 57 | 183 |
| Cc1cccc(Cl)c1-c1ccc2c(C(=O)N[C@@H]3CCNC3)c(N)ncc2c1 [Example 42, 3-amino-7-(2-chloro-6-methyl-phenyl)-N-[(3R)-pyrrolidin-3-yl]isoquinoline-4-carboxamide] | 6.55 | 17 | 100 | 340 | 202 | 173 |
| CNC1CN(c2cc(-c3c(C)cccc3F)cc3cnc(N)cc23)C1 [Example 29, 7-(2-Fluoro-6-methyl-phenyl)-5-[3-(methylamino)azetidin-1-yl]isoquinolin-3-amine] | 0.056 | 0.381 | 0.447 | 19.3 | 97.4 | 165 |
| Cc1cccc(F)c1-c1cc(NC[C@H]2CCNC2)c2cc(N)ncc2c1 [Example 9, 7-(2-fluoro-6-methyl-phenyl)-N5-[[(3S)-pyrrolidin-3-yl]methyl]isoquinoline-3,5-diamine] | 0.0411 | 0.316 | 0.269 | 0.687 | 217 | 166 |
